According to patent US8993717B2, “Gadd45beta targeting agents” (Imperial Innovations Limited, priority 2009, dated 2015):
Square brackets hold non-standard residues; d marks the D form. Peptide text beside a SMILES is read from it. * marks the point of attachment. Cbz = O=C(OCc1ccccc1)*

Legend:
[1] = biological target: T1, kinase domain of MKK7 (MKK7KD) (Homo sapiens, UniProt O14733, S271D/T275D); assay: Surface Plasmon Resonance, immobilized MKK7KD; assay type: binding; settings: 1 nM to 10 μM
T1 construct: His6; made in house; host or cells: E. coli
T1 sequence (O14733 101-405 isoform O14733-3 S287D/T291D): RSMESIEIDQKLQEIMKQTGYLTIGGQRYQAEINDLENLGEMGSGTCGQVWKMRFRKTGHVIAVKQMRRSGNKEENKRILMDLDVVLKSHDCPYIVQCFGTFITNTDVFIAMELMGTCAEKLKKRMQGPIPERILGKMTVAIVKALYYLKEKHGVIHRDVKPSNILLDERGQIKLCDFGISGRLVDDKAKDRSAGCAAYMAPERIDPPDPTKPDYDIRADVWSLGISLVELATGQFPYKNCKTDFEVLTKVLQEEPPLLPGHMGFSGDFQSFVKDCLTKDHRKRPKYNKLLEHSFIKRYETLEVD
Procedure: (§1) To determine how DTPs bind to the Gadd45 β/MKK7 complex, experiments were performed with a Biacore3000 SPR instrument (GE Healthcare, Milan, Italy), using 4-channels CM5 sensorchips (GE Healthcare, Milan, Italy). Full length human Gadd45β was prepared and purified as described in the reference by Tornatore L., et al. (2008). J Mol Biol; 378:97-111. […] The protein was purified to homogeneity by two subsequent steps of affinity chromatography (Ni-NTA support) and gel filtration (Superdex G75), and then characterized by SDS-PAGE, LC-MS to verify identity and purity, and by Circular Dichroism to assess folding.
(§2) MKK7KD was immobilized on the Biacore sensorchip via classical EDC/NHS coupling chemistry at pH 5 (protein pI, ˜9) at a flow rate of 5 uL/min An immobilization level of about 8000 Response Units was achieved. Gadd45β, which is an intrinsically acidic protein with a pI of about 4.5, was immobilized at pH 3.5 (6000 RU immobilization levels) on a separate channel. The residual reactive groups on both the Gadd45β and MKK7KD channels were finally inactivated by treatment with ethanolamine. On another channel the same procedure of activation with EDC/NHS and inactivation with ethanolamine was performed. […]

[2] = biological target: T2, Gadd45β/MKK7 complex (Homo sapiens, UniProt O14733, S271D/T275D); assay: Surface Plasmon Resonance, preformed Gadd45β/MKK7KD complex; assay type: binding
T2 construct: His6; made in house; host or cells: E. coli (MKK7KD)
T2 sequence (O14733 101-405 isoform O14733-3 S287D/T291D limits assumed): T1 sequence (O14733 101-405 isoform O14733-3 S287D/T291D)
Procedure: as §1, §2

[3] = Solubility; assay type: physicochemical; settings: result in words
[4] = system: 22 resistant tumour cell lines; assay: [3H]thymidine incorporation assay in a panel of 22 resistant tumour cell lines; settings: 100 μM, 144 hours
Procedure: In these latter assays, the effects of Z-DTPs, Ac-DTPs and Z-LTPs on the survival/proliferation of tumour cell lines was investigated by measuring DNA synthesis using standard tritiated thymidine ([^3H]thymidine; [^3H]-TdR) uptake assays. In the analyses shown, cells were incubated for 24, 72, 120 or 144 hrs at 37° C. in the presence or absence of control or bioactive tetrapeptides, as indicated, then subjected to an additional incubation for 18 hrs with [^3H]-TdR (0.037 MBq/well, equivalent to […]). Cells were subsequently harvested onto glass fibre filter mats using a 96-well plate automated cell harvester, after which scintillation fluid was added, and [^3H]thymidine incorporation measured by liquid scintillation spectroscopy on a beta counter. The results are expressed as the percentages of the counts per minute (c.p.m.) (directly correlating with the extent of cell proliferation) measured with tetrapeptide-treated cultures relative to the c.p.m. measured with the corresponding cultures incubated with medium alone (untreated cells). All experiments were performed in triplicate.

[5] = system: U266, KMS-11, NCI-H929, ARH-77, JJN-3, KMS-12, KMS-18, KMS-27 cells; assay: [3H]thymidine incorporation assay, panel of 8 sensitive multiple myeloma cell lines; assay type: cell-based, human; settings: treatment for 144 hrs; read-out: IC50s ranging over the sensitive multiple myeloma cell lines
Procedure: Cultures of multiple myeloma cells and treatments with Z-DTPs were carried out as described in Example 8 (see below). The effects of Z-DTPs on the survival/proliferation of multiple myeloma cells were evaluated by the use of [^3H]thymidine) incorporation assays, performed as also described in Example 8. The amount of cell proliferation measured with each of the Z-DTPs' concentrations used and with the untreated cultures (i.e. cultures incubated with medium alone), was expressed as counts per minute (c.p.m.)—which directly correlate with the extent of cell proliferation. All experiments were performed in triplicate.

[6] = system: CaCO2; assay: CaCO2 assays; assay type: in vitro ADME; settings: data not shown

Question: Which results are given for `CC(=O)N[C@H](Cc1ccc(O)cc1)C(=O)N[C@H](CCCNC(=N)N)C(=O)N[C@H](Cc1ccccc1)C(N)=O` [Compound 17, Ac-D-Tyr-D-Arg-D-Phe-NH2] (Ac-[dY]-[dR]-[dF]-NH2)?
Answer: binding to MKK7KD in isolation [1]: does not bind; effect on preformed Gadd45β/MKK7KD complex ([2]; injected at 10 nM or 100 nM during dissociation phase): induced a rapid dissociation of the Gadd45β/MKK7KD complex; binding to preformed Gadd45β/MKK7KD complex ([2]; injected at higher concentrations (e.g. 1 μM)): dose-response binding and dissociation curves were recorded

Question: Which solubility [3] does the source give for `N=C(N)NCCC[C@@H](NC(=O)[C@@H](CCC(=O)O)NC(=O)[C@@H](Cc1ccc(O)cc1)NC(=O)OCc1ccccc1)C(=O)N[C@H](Cc1ccccc1)C(N)=O` [Compound 9, Z-D-Tyr-D-Glu-D-Arg-D-Phe-NH2] (Cbz-[dY][dE][dR][dF]-NH2) here?
Answer: Its solubility is “high solubility”.

Question: What about the “cytotoxicity in resistant tumour cell lines” value [4] of the same compound?
Answer: Its value is “no cytotoxicity”.

Question: Which IC50 [5] does the source give for `NC(=O)[C@@H](Cc1ccccc1)NC(=O)[C@@H](Cc1c[nH]cn1)NC(=O)[C@@H](CC(=O)O)NC(=O)[C@@H](Cc1ccc(O)cc1)NC(=O)OCc1ccccc1` [Compound 1, Z-Tyr-Asp-His-Phe-NH2] (Cbz-[dY][dD][dH][dF]-NH2) here?
Answer: Its IC50 is 10.1 to 4900 nM.

Question: Which cellular permeability [6] does the source give for `CC(=O)N[C@H](Cc1ccc(O)cc1)C(=O)N[C@H](CCC(=O)O)C(=O)N[C@H](CCCNC(=N)N)C(=O)N[C@H](Cc1ccccc1)C(N)=O` [DTP2, Acetyl-(D-Tyr)-(D-Glu)-(D-Arg)-(D-Phe)-NH2] (Ac-[dY][dE][dR][dF]-NH2) here?
Answer: Its cellular permeability is “low cellular permeability”.
